Each structure is given as a SMILES string. Where two headings read alike, the source gives them in different places.

The nature of data set [1]: Pharmacokinetic analysis and oral bioavailability in rats. As to conditions: rat; for AUC: estimated for infinity; for half-life: read-out: Elim Half-Life (converted). The format is in vivo, male Spagrue-Dawley rats. The method, then: A PK study was done in rats to determine the PK profile and oral bioavailability of methotrexate and compared this to the orotate salt of methotrexate. This was done in male Spagrue-Dawley rats. This compound was administered intravenously (IV; 10 mg/kg; for methotrexate and 15.7 mg/kg for methotrexate orotate 1 mL/kg; vehicle 1% NaHCO3 in 0.9% saline) or via oral gavage (PO; 100 mg/kg methotrexate; 157 mg/kg methotrexate orotate; vehicle 1% NaHCO3 in 0.9% saline) and the plasma levels of compound in the plasma were determined at specified times. By calculating the ratio of the area under the curve for the compound concentrations (estimated for infinity as is typically done) for PO vs IV, percent oral bioavailability can be determined. Of course normalization for the different doses given IV vs PO was taken into account for determination of oral bioavailability.

Data set [2] relates to DU-145 human prostate tumor xenografts.
Method: The purpose of the experiment was to evaluate the antitumor efficacy of methotrexate (MTX) and its orotate derivative (MTX orotate) against subcutaneously (SC) implanted DU=145 human prostate tumor xenografts in male athymic NCr-nu/nu mice.
Drug formulation—2.7 mg/mL solution of MTX (Sigma-Aldrich, catalog no. M9929, lot no. 114K1572 used on days 15 and 19, and catalog no. A6770, lot no. 21H0324 used on days 19, 23 and 35) was formulated fresh on each day of treatment in 2% sodium bicarbonate in water for injection (WFI). The 2.7 mg/mL solution was diluted with sodium bicarbonate in WFI to 1.8 and 1.2 mg/mL.
A 4.25 mg/mL solution of MTX orotate was formulated fresh on each day of treatment in 2% bicarbonate in WFI to 2.83 and 1.89 mg/mL. Control group was treated with 2% sodium bicarbonate in WFI. Both compounds and the vehicle were administered to mice by exact individual animal's body weight on each day of treatment with the injection volume being 0.1 mL/10 g of body weight.
Seven groups of 10 mice per group were injected intraperitoneally (ip) once every four days for a total of 3 injections (q4d×3, Days 15, 19, 23 and 35) as follows: Group 1—2% sodium bicarbonate, Groups 2, 3 and 4 with MTX at 27, 18, and 12 mg/kg/dose, respectively. Groups 5, 6, and 7 were treated with MTX orotate at dosages 42.5, 28.3 and 18.9 mg/kg/dose respectively (based on MW of MTX=454.4 and MW of MTX orotate=714.7).
Tumors were measured and volume determined using formula L×W^2/2=mm^3; and weight calculated assuming 1 mm^3=1 mg. The study was terminated 47 days after tumor implantation
The conditions of data set [3]: in vivo; cited from earlier work.
Setting [4] is: IV, 15.7 mg/kg methotrexate orotate.
[5] abbreviates: PO, 157 mg/kg methotrexate orotate.
Where [6] appears, read: male, Sprague-Dawley, plasma, IV, 10 mg/kg methotrexate.
Setting [7] is: male, Sprague-Dawley, plasma, PO, 100 mg/kg methotrexate.

Regarding `CN(Cc1cnc2nc(N)nc(N)c2n1)c1ccc(C(=O)NC(CCC(=O)O)C(=O)[O-])cc1.O=C(O)c1cc(=O)[nH]c(=O)[nH]1.[Na+]` (stereo not drawn) [Methotrexate Orotate, sodium methotrexate orotate], in data set [1] (IV), the “Apparent volume of distribution and plasma clearance rate relative to methotrexate” value was “higher”; the “Area under the curve (AUC) relative to methotrexate” value is listed as “slightly lower”. In data set [1] (setting [4]), the Cl is 263.08 ± 17.08 mL/min/kg, the Cmax plasma came out at 2843 ± 121 ng/mL, the “Elim Half-Life” value was determined as 28.2 ± 0 min and the Tmax amounted to 6 ± 0 min. Moreover, in data set [1] (setting [4]), the Vd is 10.804 ± 0.733 L/kg and the AUC is 792 ± 62 ng·mL·h. In data set [1] (PO), the “Elimination half-life relative to methotrexate” value is “shorter” and the “Rate of getting into the plasma relative to methotrexate” value was “somewhat slower”. Further, the “% bioavailability (oral)” value in data set [1] (PO 157 mg/kg vs IV 15.7 mg/kg methotrexate orotate, dose-normalized AUC ratio) was found to be 14%. In data set [1] (setting [5]), the Cl was found to be 3233.05 ± 518.18 mL/min/kg, the Cmax plasma amounted to 59 ± 20 ng/mL, the “Elim Half-Life” value is 1060 ± 480 min and the Tmax amounted to 96 ± 24 min. For the same compound, in data set [1] (setting [5]), the Vd was 3345.18 ± 472.947 L/kg and the AUC is 1140 ± 390 ng·mL·h. In addition, the “Tumor weight - inhibition of growth of DU-145 xenografts” value in data set [2] (MTX orotate highest dose (42.5 mg/kg/dose) ip q4d) is reported as “marginal inhibition”. For the same compound, in data set [2] (MTX orotate two low doses (28.3 and 18.9 mg/kg/dose) ip q4d, SC DU-145 xenografts), the “Tumor weight - tumor inhibition” value was “no effect”. Further, in data set [2] (ip, equivalent dosages, SC DU-145 xenografts), the “Tumor growth compared with MTX” value is given as “no significant difference”.

Regarding `CN(Cc1cnc2nc(N)nc(N)c2n1)c1ccc(C(=O)N[C@@H](CCC(=O)O)C(=O)O)cc1` [Methotrexate, methotrexate], in data set [1] (setting [6]), the Cmax was found to be 3780 ± 636 ng/mL, the clearance was 157 mL/min/kg and the half-life was 26.4 ± 0.6 min. Moreover, the Tmax in data set [1] (male, Sprague-Dawley, plasma, IV, 10 mg/kg methotrexate, read-out: Tmax) came out at 6 min. Also, in data set [1] (male, Sprague-Dawley, plasma, IV, 10 mg/kg methotrexate, read-out: Vd), the Vd amounted to 6.12 ± 0.671 L/kg. Besides, in data set [1] (male, Sprague-Dawley, plasma, PO 100 mg/kg vs IV 10 mg/kg methotrexate, dose-normalized AUC ratio), the bioavailability stood at 6%. In addition, in data set [1] (setting [7]), the Cmax was 51 ± 12 ng/mL and the half-life was 1880 ± 924 min. The Tmax in data set [1] (male, Sprague-Dawley, plasma, PO, 100 mg/kg methotrexate, read-out: Tmax) was 54 ± 36 min. For the same compound, the AUC in data set [1] (IV, 10 mg/kg methotrexate) is 1151 ± 142 ng·mL·h. In data set [1] (PO, 100 mg/kg methotrexate), the Cl turned out to be 2537.12 ± 257.27 mL/min/kg, the Vd amounted to 6811.662 ± 3415.946 L/kg and the AUC was 671 ± 70 ng·mL·h. Besides, the “Tumor weight - tumor inhibition” value in data set [2] (MTX 27, 18 and 12 mg/kg/dose ip q4d, SC DU-145 xenografts) is recorded as “no effect”. Also, in data set [3], the “Bound to plasma proteins” value is listed as “approximately 50%” and the “Elimination from plasma, gamma half life” value is 1620 min.

The values above are taken from US7601834B2, “Compositions and methods of reducing side effects and toxicity of methotrexate when given as orotate derivatives” (SavviPharm Inc, priority 2005, dated 2009).
